Measured values as given in PMC8729770, “In Vitro Evaluation of Antimicrobial Peptides from the Black Soldier Fly (Hermetia Illucens) against a Selection of Human Pathogens” (Microbiology Spectrum, 2022).
Where “and” joins values, the source holds several entries; their conditions need not be identical. Equal entries are not always repeated. Where two headings read alike, the source gives them in different places. Ends that are not written are not given here.

What was measured:
S. aureus ATCC 6538 = format: cell-based, Staphylococcus aureus; conditions: for IC50: MHB, 37°C, resazurin, 50% growth inhibition; for IC50 / MIC S. aureus ATCC 6538: 16 h; for MIC S. aureus ATCC 6538: determined visually; for MBC S. aureus ATCC 6538: wells without visual growth plated on MHA, ≥3 log reduction vs growth control
Method: (§1) To detect antimicrobial activity of the BSF AMPs, the peptide library underwent screening against a panel of microorganisms, consisting of S. aureus ATCC 6538, E. coli ATCC 8739, P. aeruginosa ATCC 9027, C. albicans B59630, and A. fumigatus B42928. Serial dilutions of the peptides were prepared from the DMSO stock solutions in sterile demineralized water in 96-well plates using an automated liquid-handling workstation (Beckman Coulter Biomek 3000) in end volumes of 10 μL. The final in-plate concentration of DMSO was <1%. Peptide concentrations ranged from 64 μM to 0.25 μM for the first evaluation, and from 32 μM to 0.016 μM for the independent repeat. As references, doxycycline (Sigma-Aldrich; S. aureus, E. coli, P. aeruginosa), flucytosine (Sigma-Aldrich; C. albicans), and econazole (Sigma-Aldrich; A. fumigatus) were used. Suspensions of a starting inoculum of 5 × 10^3 CFU/mL (E. coli, S. aureus, C. albicans, A. fumigatus) and 5 × 10^4 CFU/mL (P. aeruginosa) were prepared in MHB (bacterial species) or RPMI medium (fungal species) and 190 μL was added to the 96-well plates. Plates were incubated for 16 h (E. coli, S. aureus, P. aeruginosa), 24 h (C. albicans), or 48 h (A. fumigatus) at 37°C. After incubation, read-out of the antimicrobial activity was performed using a resazurin assay. Then, 20 μL of a 0.01% (wt/vol) resazurin (Sigma-Aldrich) solution was added to each well and plates were incubated for 15 min (S. aureus), 30 min (E. coli), 45 min (P. aeruginosa), 4 h (C. albicans), or 17 h (A. fumigatus) to allow resazurin reduction to take place. Fluorescence was read using a microplate reader (Telix) at λexcitation = 550 nm and λemission = 590. […] MIC values were determined visually. Medium in the wells with no visual growth was plated on MHA to detect the MBC, defined as ≥3 log reduction compared with the growth control.

A. fumigatus B42928 = format: cell-based, Aspergillus fumigatus; conditions: RPMI, 48 h, 37°C, resazurin
Method: as §1

C. albicans B59630 = format: cell-based, Candida albicans; conditions: RPMI, 24 h, 37°C, resazurin
Method: as §1

P. aeruginosa ATCC 9027 = format: cell-based, Pseudomonas aeruginosa; conditions: for IC50: MHB, 37°C, resazurin; for IC50 / MIC P. aeruginosa ATCC 9027: 16 h; for MIC P. aeruginosa ATCC 9027: determined visually; for MBC P. aeruginosa ATCC 9027: plated on MHA, ≥3 log reduction vs growth control
Method: as §1

E. coli ATCC 8739 = format: cell-based, Escherichia coli; conditions: for IC50: MHB, 37°C, resazurin; for IC50 / MIC E. coli ATCC 8739: 16 h; for MIC E. coli ATCC 8739: determined visually
Method: as §1

[1] = tested on: MRC5-SV2 cell line of human, embryonic lung fibroblasts; assay: Cytotoxicity screening of the peptide library; format: cell-based; conditions: 72 h, 37°C, resazurin fluorescence
Method: To determine early signs of peptide toxicity, the library was tested against the MRC5-SV2 cell line of human, embryonic lung fibroblasts (Sigma-Aldrich). Peptides were serially diluted in 96-well plates as described earlier at concentrations ranging from 64 μM to 0.25 μM for the first screening, and from 32 μM to 0.016 μM for the independent repeat. Tamoxifen (Sigma-Aldrich) was included as a reference compound. After preparation of the test plates, cell suspension (190 μL) of 1.5 × 10^5 cells/mL in complete minimum essential medium (Gibco) was added to the peptides. Plates were incubated for 72 h at 37°C in a 5% CO2 incubator (Binder). Afterwards, 50 μL of a 0.01% (wt/vol) resazurin (Sigma-Aldrich) solution was added to the wells to detect cell viability.

[2] = repeat 1, first screening 64-0.25 μM
[3] = repeat 2, independent repeat 32-0.016 μM

| Sequence | IC50 (S. aureus ATCC 6538; repeat 1, 64-0.25 μM) | MIC S. aureus ATCC 6538 (S. aureus ATCC 6538; repeat 1, 64-0.25 μM) | IC50 (S. aureus ATCC 6538; repeat 2, 32-0.016 μM) | MIC S. aureus ATCC 6538 (S. aureus ATCC 6538; repeat 2, 32-0.016 μM) | IC50 (A. fumigatus B42928; repeat 1, 64-0.25 μM) | IC50 (A. fumigatus B42928; repeat 2, 32-0.016 μM) | IC50 (C. albicans B59630; repeat 1, 64-0.25 μM) | IC50 (C. albicans B59630; repeat 2, 32-0.016 μM) | IC50 (P. aeruginosa ATCC 9027; repeat 1, 64-0.25 μM) | MIC P. aeruginosa ATCC 9027 (P. aeruginosa ATCC 9027; repeat 1, 64-0.25 μM) | IC50 (P. aeruginosa ATCC 9027; repeat 2, 32-0.016 μM) | MIC P. aeruginosa ATCC 9027 (P. aeruginosa ATCC 9027; repeat 2, 32-0.016 μM) | IC50 (E. coli ATCC 8739; repeat 1, 64-0.25 μM) | MIC E. coli ATCC 8739 (E. coli ATCC 8739; repeat 1, 64-0.25 μM) | IC50 (E. coli ATCC 8739; repeat 2, 32-0.016 μM) | MIC E. coli ATCC 8739 (E. coli ATCC 8739; repeat 2, 32-0.016 μM) | IC50 [1, 2] | IC50 [1, 3] | other results |
| --- | --- | --- | --- | --- | --- | --- | --- | --- | --- | --- | --- | --- | --- | --- | --- | --- | --- | --- | --- |
| AMCDLLSGLNMGRSVCAMRCILKGHRGGWCDDQGVCNCRV [Hill-Def5, Defensin without disulfide bridges] | > 64 µM | > 64.00 µM | > 32 µM | > 32.00 µM | > 64 µM | > 32 µM | > 64 µM | > 32 µM | > 64 µM | > 64.00 µM | > 32 µM | > 32.00 µM | > 64 µM | > 64.00 µM | > 32 µM | > 32.00 µM | > 64 µM | > 32 µM | – |
| QLPCDYLSGLGFGEDACNTDCIAKGHKSGFCTGLVCRCRTL [Hill-Def8, Defensin without disulfide bridges] | > 64 µM | > 64.00 µM | > 32 µM | > 32.00 µM | > 64 µM | > 32 µM | > 64 µM | > 32 µM | > 64 µM | > 64.00 µM | > 32 µM | > 32.00 µM | > 64 µM | > 64.00 µM | > 32 µM | > 32.00 µM | > 64 µM | > 32 µM | – |
| DQSKEPFKPMERPYQRVRDAKIQGITIAQNGPNVLAITRGGLEQ [Hill-Cec6, Cecropin, C-terminal amidation] | > 64 µM | > 64.00 µM | > 32 µM | > 32.00 µM | > 64 µM | > 32 µM | > 64 µM | > 32 µM | > 64 µM | > 32.00 µM | > 32 µM | – | > 64 µM | > 32.00 µM | > 32 µM | > 64.00 µM | > 64 µM | > 32 µM | MBC P. aeruginosa ATCC 9027 (P. aeruginosa ATCC 9027; repeat 1): 16.00 µM; MBC P. aeruginosa ATCC 9027 (P. aeruginosa ATCC 9027; repeat 2): 2.00 µM; MBC E. coli ATCC 8739 (E. coli ATCC 8739; repeat 2, plated on MHA, ≥3 log reduction vs growth control): 2.00 µM |
| ATCDLLSPFKVGHAACAAHCIARGKRGGWCDKRAVCNCRK (also: bicyclic or more (positions not given here)) [Hill-Def2b, Defensin with disulfide bridges, counterpart of Hill-Def2a] | 8.5 µM | 64.00 µM | 13.5 µM | > 32.00 µM and 32.00 µM | > 64 µM | > 32 µM | > 64 µM | > 32 µM | > 64 µM | > 32.00 µM and >64.00 µM | > 32 µM | > 64.00 µM and >32.00 µM | > 64 µM | > 32.00 µM | > 32 µM | > 64.00 µM and 64.00 µM | > 64 µM | > 32 µM | concentration for 90% growth inhibition of S. aureus / activity against S. aureus (S. aureus ATCC 6538; library screening, both repeats): 32 µM and 64 µM; MBC S. aureus ATCC 6538 (S. aureus ATCC 6538; repeat 1): static; MBC S. aureus ATCC 6538 (S. aureus ATCC 6538; repeat 2): static |
| TTCDLISGTKIENIACAAHCIAMGHKGGYCNSNLICICR [Hill-Def7, Defensin without disulfide bridges] | > 64 µM | > 64.00 µM | > 32 µM | > 32.00 µM | > 64 µM | > 32 µM | > 64 µM | > 32 µM | > 64 µM | > 64.00 µM | > 32 µM | > 32.00 µM | > 64 µM | > 64.00 µM | > 32 µM | > 32.00 µM | > 64 µM | > 32 µM | – |
| LSCLFENQAVSAIACGASCITRKGKRGGWCSNGVCRCTPN [Hill-Def6, Defensin without disulfide bridges] | > 64 µM | > 64.00 µM | > 32 µM | > 32.00 µM | > 64 µM | > 32 µM | > 64 µM | > 32 µM | > 64 µM | > 64.00 µM | > 32 µM | > 32.00 µM | > 64 µM | > 64.00 µM | > 32 µM | > 32.00 µM | > 64 µM | > 32 µM | – |
| ATCTNWNCRTQCIARGKRGGYCVERNICKCTS [Hill-Def3, Defensin without disulfide bridges] | > 64 µM | > 64.00 µM | > 32 µM | > 32.00 µM | > 64 µM | > 32 µM | > 64 µM | > 32 µM | > 64 µM | > 64.00 µM | > 3 µM | > 32.00 µM | > 64 µM | > 64.00 µM | > 32 µM | > 32.00 µM | > 64 µM | > 32 µM | – |
